pIC50: −log10 of the molar value. Read-outs that look alike come from different tables or passages of the source.
Columns and labels:
SW837 cells = experiment: 3D cell growth assay (CellTiter-Glo), SW837; format: cell-based; settings: Homo sapiens, 144 h, SW837, KRAS G12C, 6 days, read-out: 3D growth inhibition GI50
Procedure: (§1) MIA PaCa-2 (ATCC), NCI-H358 (ATCC), NCI-H23 (ATCC), SW837 and A549 (ATCC) cells were plated in round bottom 96-well spheroid microplates (Corning, 4520) at 3000 cells/well in 90 ul of RPMI growth medium containing 10% FBS and 1% Penicillin Streptomycin. Cells were incubated at 37° C. overnight. The following day, the test compound was administered to the cells by using 10× compound stock solution prepared in growth medium at various concentrations. After administration of the compound, cells were then incubated at 37° C. for 6 days. Before CellTiter-Glo assay, the plates were equilibrated at room temperature for approximately 10 minutes. 100 ul of CellTiter-Glo® Reagent (Promega, G7573) was added to each well. The plates were then incubated at room temperature for 10 minutes and luminescence was recorded by EnSpire plate reader (PerkinElmer). Table 6 illustrates growth inhibition (G150) by exemplary compounds 1-10 of the present disclosure in a MIA PaCa-2 cell line 6 days after administration in 3D cell culture. A: >0.1 nM and <1 nM; B: >=1 nM and <10 nM; C: >=10 nM and <100 nM; D: >100 nM.

KRAS-G12C mutant [1] = biological target: T1, KRAS-G12C mutant (Homo sapiens, UniProt P01116, G12C); experiment: Gel shift assay (SDS-PAGE) for covalent modification of KRAS G12C; format: binding; settings: 0.5 μM compound, 1 μM GDP-bound KRAS G12C, 25° C., 5 minutes, shift indicative of covalent cysteine conjugation
Procedure: 0.5 μM compounds were incubated with 1 μM GDP-bound untagged KRAS (G12C or wild type) proteins at 25° C. for 5 minutes in 40 μl reaction buffer (50 mM Tris, pH 7.5, 100 mM NaCl, 1 mM MgCl2, 1 mM DTT). The reactions were quenched with 10 μI SDS-PAGE sample loading buffer (250 mM Tris-HCl, pH 6.8, 10% SDS, 0.5% bromophenol blue, 50% glycerol and 50 mM DTT) and then analyzed via SDS-PAGE using 4%-20% gradient polyacrylamide gel followed by Coomassie blue stain.
FIG. 1 illustrates mobility change of KRAS-G12C mutant or wild type proteins on SDS-PAGE after 5 minutes of coincubation at 25° C. with exemplary compounds of the present disclosure, indicative of covalent cysteine conjugation.
Table 3 summarizes molecular weight shift of KRAS-G12C mutant on SDS-PAGE after 5 mins of coincubation at 25° C. with exemplary compounds of the present disclosure, indicative of covalent cysteine conjugation.

[2] = tested on: phospho-ERK1/2 (Thr202/Tyr204) in SW837 cells; experiment: pERK and ERK Western blot analysis, SW837; format: cell-based; settings: Homo sapiens; SW837, KRAS G12C, 4 hours
Procedure: (§2) MIA PaCa-2 (ATCC), NCI-H358 (ATCC), NCI-H23 (ATCC), SW837 and A549 (ATCC) cells were plated in 24-well plates at 2×10^5cells/well in RPMI growth medium containing 10% FBS and 1× Penicillin Streptomycin. They were then incubated at 37° C. overnight. The following day, the test compound was administered to the cells by using 1000× compound stock solution prepared in DMSO at various concentrations. After administration of the compound, the cells were then incubated at 37° C. for 4 hours. Upon completion, the cells were washed with PBS and protein was collected in Laemmli sample buffer (1×; VWR International). Proteins in cell lysate were separated by SDS-PAGE and transferred to Odyssey nitrocellulose membranes (Licor) with iblot® dry blotting transfer system (ThermoFisher). Nonspecific binding was blocked by incubating membranes with Intercept Blocking Buffer (Licor) for 1 hour at room temperature with gentle shaking. The membranes were then incubated overnight at 4° C. with primary antibodies rabbit anti-phospho p44/42 MAPK (Erk1/2) (1:2,000, Cell Signaling, 4370) and mouse anti-p44/42 MAPK (Erk1/2) (1:1,000, Cell Signaling, 4696) diluted in Intercept Blocking Buffer containing 0.1% Tween 20. […] The bands were quantified using Image Studio™ Software (Licor).

[3] = tested on: phospho-ERK1/2 (Thr202/Tyr204) in NCI-H358 cells; experiment: pERK and ERK Western blot analysis, NCI-H358; format: cell-based; settings: Homo sapiens; NCI-H358, KRAS G12C, 4 hours
Procedure: as §2

KRAS-G12C mutant [4] = biological target: T1, KRAS-G12C mutant; experiment: TR-FRET assay of SOS1-assisted KRAS GDP/GTP exchange; format: biochemical
Procedure: GDP form of 6*His tagged KRAS-G12C was diluted to 40 nM and incubated with 8 nM LanthaScreen™ Elite Terbium-anti-HIS Antibody (Thermo, catalog number PV5863) in reaction buffer containing 20 mM Tris, pH 7.5, 100 mM NaCl, 1 mM DTT, 0.1% Tween20, 0.05% BSA, 2% DMSO, 1 mM MgCl2. After 1 hour-incubation at 4° C., proteins were placed in 384 well plate (PerkinElmer, PROXIPLATE-384 PLUS). Then compounds with different concentrations were added to the proteins. BODIPY labeled GTP (Thermo, catalog number G12411) and SOS-1 (or reaction buffer as control) were then added to reactions at 200 nM and 1 μM to trigger the exchange of GDP to BODIPY-GTP. TR-FRET emission signals were determined at 520 nm and 620 nm on a Envision® Multilabel Plate Reader (PerkinElmer) using a 337 nm laser as light source. All data were analyzed and plotted using Graph Pad Prism software (version 8.0.1). Raw TR-FRET data were converted to percentage of inhibition (relative to DMSO) using the following equations: […]
b) For a given test compound concentration X:
Signal (X)=Emission ratio (SOS-1 & GTP)—Emission ratio (buffer & GTP)
c) Percentage of inhibition at concentration X=[1−Signal(X)/Signal (DMSO)]*100%
The […] values were determined by nonlinear regression of plots of [inhibitor] vs. percentage of inhibition with variable slope. Table 4 summarizes inhibition of SOS1-assisted GDP/GTP exchanging activity of KRAS-G12C mutant with exemplary compounds of the present disclosure.

[5] = tested on: phospho-ERK1/2 (Thr202/Tyr204) in NCI-H23 cells; experiment: pERK and ERK Western blot analysis, NCI-H23; format: cell-based; settings: Homo sapiens; NCI-H23, KRAS G12C, 4 hours
Procedure: as §2

MIA PaCa-2 cell line = experiment: 3D cell growth assay (CellTiter-Glo), MIA PaCa-2; format: cell-based; settings: Homo sapiens, MIA PaCa-2, 144 h, 6 days, read-out: 3D growth inhibition GI50
Procedure: as §1

NCI-H23 cells = experiment: 3D cell growth assay (CellTiter-Glo), NCI-H23; format: cell-based; settings: Homo sapiens, 144 h, NCI-H23, KRAS G12C, 6 days, read-out: 3D growth inhibition GI50
Procedure: as §1

A549 cells = experiment: 3D cell growth assay (CellTiter-Glo), A549; format: cell-based; settings: Homo sapiens, 144 h, A549, KRAS G12S, 6 days, read-out: 3D growth inhibition GI50
Procedure: as §1

NCI-H358 cells = experiment: 3D cell growth assay (CellTiter-Glo), NCI-H358; format: cell-based; settings: Homo sapiens, 144 h, NCI-H358, KRAS G12C, 6 days, read-out: 3D growth inhibition GI50
Procedure: as §1

[6] = tested on: phospho-ERK1/2 (Thr202/Tyr204) in MIA PaCa-2 cell line; experiment: pERK and ERK Western blot analysis, MIA PaCa-2; format: cell-based; settings: Homo sapiens
Procedure: MIA PaCa-2 (ATCC), NCI-H358 (ATCC), NCI-H23 (ATCC), SW837 and A549 (ATCC) cells were plated in 24-well plates at 2×10^5cells/well in RPMI growth medium containing 10% FBS and 1× Penicillin Streptomycin. They were then incubated at 37° C. overnight. The following day, the test compound was administered to the cells by using 1000× compound stock solution prepared in DMSO at various concentrations. After administration of the compound, the cells were then incubated at 37° C. for 4 hours. Upon completion, the cells were washed with PBS and protein was collected in Laemmli sample buffer (1×; VWR International). Proteins in cell lysate were separated by SDS-PAGE and transferred to Odyssey nitrocellulose membranes (Licor) with iblot® dry blotting transfer system (ThermoFisher). Nonspecific binding was blocked by incubating membranes with Intercept Blocking Buffer (Licor) for 1 hour at room temperature with gentle shaking. The membranes were then incubated overnight at 4° C. with primary antibodies rabbit anti-phospho p44/42 MAPK (Erk1/2) (1:2,000, Cell Signaling, 4370) and mouse anti-p44/42 MAPK (Erk1/2) (1:1,000, Cell Signaling, 4696) diluted in Intercept Blocking Buffer containing 0.1% Tween 20. After washing 3 times with TBS-T, the membranes were incubated with IRDye® 800CW goat anti-rabbit IgG (1:20,000, Licor) or IRDye® 680CW goat anti-mouse IgG (1:20,000, Licor) for 1 hour. After TBS-T washes, membranes were rinsed in TBS and scanned on Odyssey® CLx Imaging System (Licor). The bands were quantified using Image Studio™ Software (Licor).

[7] = tested on: phospho-ERK1/2 (Thr202/Tyr204) in A549 cells; experiment: pERK and ERK Western blot analysis, A549; format: cell-based; settings: Homo sapiens; A549, KRAS G12S, 4 hours
Procedure: as §2

[8] = MIA PaCa-2 cell line, 3D cell culture
[9] = MIA PaCa-2, MiaPaCa2, KRAS G12C, 4 hours, read-out: pERK IC50
[10] = MIA PaCa-2 cell line, 4 hours after incubation, read-out: 2D pERK IC50

Row | Compound | GI50 (SW837 cells) [nM] | KRAS-G12C molecular weight shift (KRAS-G12C mutant [1]) | pIC50 [2] | pIC50 [3] | pIC50 (KRAS-G12C mutant [4]) | pIC50 [5] | GI50 (MIA PaCa-2 cell line; [8]) [nM] | GI50 (MIA PaCa-2 cell line; MiaPaCa2, KRAS G12C, 3D) [nM] | GI50 (NCI-H23 cells) [nM] | GI50 (A549 cells) [nM] | GI50 (NCI-H358 cells) [nM] | pIC50 [6, 9] | pIC50 [6, 10] | pIC50 [7]
1 | C=C(F)C(=O)N1CCN(c2nc(OC[C@@]34CCCN3C[C@H](F)C4)nc3c2CO[C@H](c2cccc4cccc(Cl)c24)C3)C[C@@H]1CC#N [Compound 64, 2-((S)-4-((S)-7-(8-chloronaphthalen-1-yl)-2-(((2R,7aS)-2-fluorotetrahydro-1H-pyrrolizin-7a(5H)-yl)methoxy)-7,8-dihydro-5H-pyrano[4,3-d]pyrimidin-4-yl)-1-(2-fluoroacryloyl)piperazin-2-yl)acetonitrile] | 4.1 | Yes | 8.92 | 8.60 | 7.70 | 8.77 | 0.1 to 1 | 0.3 | 2.1 | > 300 | 0.2 | 8.62 | 8.00 to 9.00 | < 4.52
2 | C=C(F)C(=O)N1CCN(c2nc(OCC34CCCN3CCC4)nc3c2CO[C@H](c2cccc4cccc(C)c24)C3)C[C@@H]1CC#N (single isomer, unassigned) [Compound 58] | – | Yes | – | – | 7.72 | – | 1 to 10 | – | – | – | – | – | 7.00 to 8.00 | –
3 | C=C(F)C(=O)N1CCN(c2nc(OCC3(CN4CCCC4)CC3)nc3c2CO[C@H](c2cccc4cccc(Cl)c24)C3)C[C@@H]1CC#N (single isomer, unassigned) [Compound 73] | – | Yes | – | – | 6.95 | – | 10 to 100 | – | – | – | – | – | 7.00 to 8.00 | –
4 | C=C(F)C(=O)N1CCN(c2nc(OC[C@@H]3CCCN3C)nc3c2CO[C@H](c2cccc4cccc(Cl)c24)C3)C[C@@H]1CC#N [Compound 18, 2-((S)-4-((S)-7-(8-chloronaphthalen-1-yl)-2-(((S)-1-methylpyrrolidin-2-yl)methoxy)-7,8-dihydro-5H-pyrano[4,3-d]pyrimidin-4-yl)-1-(2-fluoroacryloyl)piperazin-2-yl)acetonitrile] | – | Yes | – | – | 7.11 | – | 1 to 10 | 7.3 | – | – | – | 7.66 | 7.00 to 8.00 | –
5 | C=C(F)C(=O)N1CCN(c2nc(OCC34CCCN3CCC4)nc3c2[C@H](C)O[C@H](c2cccc4c2CCCC4)C3)C[C@@H]1CC#N [Compound 61, 2-((S)-1-(2-fluoroacryloyl)-4-((5S,7S)-5-methyl-2-((tetrahydro-1H-pyrrolizin-7a(5H)-yl)methoxy)-7-(5,6,7,8-tetrahydronaphthalen-1-yl)-7,8-dihydro-5H-pyrano[4,3-d]pyrimidin-4-yl)piperazin-2-yl)acetonitrile] | – | Yes | – | – | 7.11 | – | 10 to 100 | – | – | – | – | – | 7.00 to 8.00 | –
6 | C=C(F)C(=O)N1CCN(c2nc(OCC34CCCN3CCC4)nc3c2C(C)OC(c2cccc4cccc(Cl)c24)C3)C[C@@H]1CC#N (stereo partly drawn) [Compound 59, 2-((2S)-4-(7-(8-chloronaphthalen-1-yl)-5-methyl-2-((tetrahydro-1H-pyrrolizin-7a(5H)-yl)methoxy)-7,8-dihydro-5H-pyrano[4,3-d]pyrimidin-4-yl)-1-(2-fluoroacryloyl)piperazin-2-yl)acetonitrile] | – | Yes | – | – | 7.22 | – | 1 to 10 | – | – | – | – | – | 7.00 to 8.00 | –
7 | C=C(F)C(=O)N1CCN(c2nc(OCC3(CN4CCCC4)CC3)nc3c2CO[C@@H](c2cccc4cccc(Cl)c24)C3)C[C@@H]1CC#N (single isomer, unassigned) [Compound 72] | – | No | – | – | 4.94 | – | > 100 | – | – | – | – | – | < 7.00 | –
8 | C=C(F)C(=O)N1CCN(c2nc(OCC34CCCN3CCC4)nc3c2CO[C@H](c2cccc4cccc(Cl)c24)C3)C[C@@H]1CC#N (single isomer, unassigned) [Compound 55] | 8.6 | Yes | 8.23 | 7.92 | 7.66 | 8.19 | 0.1 to 1 | 0.8 | 8.4 | > 300 | 0.7 | 8.00 | 8.00 to 9.00 | < 4.52
